Source: US20120264827A1, “SULFANYLAMIDE DERIVATIVES, USES THEREOF AND COMPOSITIONS COMPRISING THEM” (YISSUM RESEARCH DEVELOPMENT COMPANY OF THE HEBREW …, priority 2009, published 2012)
Read-outs that look alike come from different tables or passages of the source.

Experiments:
[1] = test system: maximal electroshock seizure (MES); assay: Maximal electroshock seizure test (MES), mice, intraperitoneal; assay type: in vivo; conditions: ip;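 also: adult male CF no. 1 albino mice of 18–25 g, given compound intraperitoneally as a 0.5% methylcellulose suspension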
[2] = test system: maximal electroshock seizure (MES); assay: Maximal electroshock seizure test (MES), rats, oral; conditions: Rattus norvegicus, po, read-out: Anti-MES activity (number of animals protected/number of animals tested);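 also: adult male Sprague-Dawley rats received test compounds by mouth as a suspension in 0.5% methylcellulose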
Protocol: The tested compounds were suspended in 0.5% methylcellulose and administered (a) intraperitioneally (ip) to adult male CF no. 1 albino mice (18-25 g) in volume of 0.01 mL/g body weight and (b) orally to adult male Sprague-Dawley albino rats (100-150 g) in volume of 0.04 mL per 10 g of body weight.
The TD50 was determined by varying the dose of the tested compounds until four points were established between the dose level that induced no signs of minimal motor impairment in any of the animals and the dose at which all the animals were considered impaired. […] The PIs were calculated by dividing the TD50 by the ED50.

[3] = test system: subcutaneous metrazol (pentylenetetrazol) seizure; assay: Subcutaneous metrazol seizure threshold test (scMet), mice, intraperitoneal; assay type: in vivo; conditions: ip;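 also: adult male CF no. 1 albino mice weighing 18-25 g, dosed intraperitoneally with compounds suspended in 0.5% methylcellulose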
[4] = 30 mg/kg, 0.5 h after administration
[5] = 30 mg/kg, 4 h after administration
[6] = 100 mg/kg, 0.5 h after administration
[7] = 100 mg/kg, 4 h after administration
[8] = 300 mg/kg, 0.5 h after administration
[9] = 300 mg/kg, 4 h after administration

melting point [°C] | SMILES | MES (number of animals protected/number of animals tested) [1, 4] | MES (number of animals protected/number of animals tested) [1, 5] | MES (number of animals protected/number of animals tested) [1, 6] | MES (number of animals protected/number of animals tested) [1, 7] | MES (number of animals protected/number of animals tested) [1, 8] | MES (number of animals protected/number of animals tested) [1, 9] | responders at 30 mg/kg ([2]; 0.5 h) [%] | responders at 30 mg/kg ([2]; 1 h) [%] | responders at 30 mg/kg ([2]; 2 h) [%] | responders at 30 mg/kg ([2]; 4 h) [%] | responders at 30 mg/kg ([2]; […]) [%] | scMet (number of animals protected/number of animals tested) [3, 4] | scMet (number of animals protected/number of animals tested) [3, 5] | scMet (number of animals protected/number of animals tested) [3, 6] | scMet (number of animals protected/number of animals tested) [3, 7] | scMet (number of animals protected/number of animals tested) [3, 8] | scMet (number of animals protected/number of animals tested) [3, 9]
223 to 226 | CCCC(C(=O)Nc1ccc(S(N)(=O)=O)cc1)C(C)CC (stereo not drawn) [Compound 21, 2-propyl-3-Methyl-N-(4-sulfamoyl-phenyl)-pentanamide] | 0/1 | 0/1 | 1/3 | 2/3 | 1/1 | 1/1 | 25 | 25 | 50 | 25 | 0 | 0/1 0/1 0/1 | 0/1 0/1 0/1 | 0/1 0/1 0/1 | 0/1 0/1 0/1 | 0/1 0/1 0/1 | 0/1 0/1 0/1
203 to 205 | CCC(C)C(CC)C(=O)Nc1ccc(S(N)(=O)=O)cc1 (stereo not drawn) [Compound 19, 2-Ethyl-3-methyl-N-(4-sulfamoyl-phenyl)-pentanamide] | 0/1 | 0/1 | 3/7 | 3/3 | 4/5 | 1/1 | 0 | 75 | 100 | 75 | 0 | 0/1 0/1 0/1 | 0/1 0/1 0/1 | 0/1 0/1 0/1 | 0/1 0/1 0/1 | 0/1 0/1 0/1 | 0/1 0/1 0/1
205 to 207 | CC(C)(C)CC(=O)NCc1ccc(S(N)(=O)=O)cc1 [Compound 27, 3,3-Dimethyl-N-(4-sulfamoyl-benzyl)-butyramide] | 0/1 | 0/1 | 0/3 | 1/3 | 0/1 | 1/1 | 0 | 25 | 50 | 50 | 0 | 0/1 0/1 0/1 | 0/1 0/1 0/1 | 0/1 0/1 0/1 | 0/1 0/1 0/1 | 0/1 0/1 0/1 | 0/1 0/1 0/1
